According to patent publication US20250332139A1, “PS[…] AND THEIR USE FOR TREATING […] AND NE[…] DISORDERS” (Transcend Therapeutics, Inc., priority 2021, published 2025):
Like-named read-outs stand apart in the source and are kept apart here.

What was measured:
Sprague Dawley rats [1] = conditions: previous literature reports (Hibicke 2020; Yang 2013; Tizabi 2012); cited from earlier work
Sprague Dawley rats [2] = test: Forced Swim Test (FST); type: in vivo, rat
Description: The Forced Swim Test (FST) is a classic, and the most used preclinical behavioral assay to screen compounds with antidepressant-like activity and has high predictive and face validity (Porsolt et al. (1977) Nature 266:730; Borsini and Meli (1988) Psychopharmacology 94:147). The premise of the FST is that when rats are placed into a cylinder filled with water, they will initially try to escape, but over time will become immobile. This increased immobility reflects behavioral despair, modeling a depressive-like state.
Forced Swim Test (FST): In the FST trial, rats were placed in a circular plexiglass container filled with water, with no means of escape. Water temperature was maintained at 22-25° C. and changed for every animal. After an acclimation period, rats were timed for inactivity (failure to struggle), activity, swim time and climbing time. Day 1 consisted of a 15 min acclimation trial, and Day 2 (24 h later) consisted of the 5 min test. A time sampling procedure was employed where animals were observed every 5 sec and scored for immobility, swimming, or climbing. Fluoxetine (10 mg/kg, IP, Sigma Aldrich) or 0.9% sterile saline vehicle (vehicle 3X group) were administered 23.5, 5, and 1 h before testing in the FST. […] The experimenter was blinded to treatment.
Forced Swim Test: In the FST trial, rats were placed in a circular plexiglass container filled with water, with no means of escape. Water temperature was maintained at 22-25° C. and changed for every animal. After an acclimation period, rats were timed for inactivity (failure to struggle), activity, swim time and climbing time. Day 1 consisted of a 15 min acclimation trial, and Day 2 (24 h later) consisted of the 5 min test. A time sampling procedure was employed where animals were observed every 5 sec and scored for immobility, swimming, or climbing. Fluoxetine (10 mg/kg, IP, Sigma Aldrich) or 0.9% sterile saline vehicle (vehicle 3X group) were administered 23.5, 5, and 1 h before testing in the FST. 2C-B (2.5, 10, or 20 mg/kg, IP, Cayman Chemical) or 0.9% saline vehicle (vehicle 1X group) were administered 30 min prior to FST testing. The experimenter was blinded to treatment.
Drug Treatment: Fluoxetine (10 mg/kg, IP, Sigma Aldrich) or 0.9% sterile saline vehicle were administered 23.5, 5, and 1 h before testing in the FST. […] Control animals received fluoxetine alone, methylone alone, or saline vehicle.
Forced Swim Test: In the FST trial, rats were placed in a circular plexiglass container filled with water, with no means of escape. Water temperature was maintained at 22-25° C. and changed for every animal. After an acclimation period, rats were timed for inactivity (failure to struggle), activity, swim time and climbing time. The experimenter and scorer were blind to treatment group. Day 1 consisted of a 15 min acclimation trial, and Day 2 (24 h later) consisted of the 5 min test. A time sampling procedure was employed where animals were observed every 5 sec and scored for immobility, swimming, or climbing.
The FST was performed and scored by an experimenter blind to treatment group according to standard protocols and based on a “modified FST” procedure (Slattery and Cryan (2012) Nat Protoc, 7:1009). Briefly, rats were placed in a circular plexiglass container (29.2 cm diameter, 49.5 cm height) filled with water to a depth of 30 cm so rats could not support themselves by touching the bottom of the tank. Water was maintained at 22-25° C. and was changed for every animal. Day 1 (Training) consisted of a 15 min acclimation trial, and Day 2 (Testing, 24 h later) consisted of the 5 min test. A time sampling procedure was employed where animals were observed every 5 seconds for the duration of the test session (60 counts or 5 minutes) and scored for immobility (defined as the failure to struggle), swimming (defined as a circular movement around the tank), or climbing (defined as an upwards escape behavior). […]

[3] = target: T1, Human serotonin 5HT2B receptor (Homo sapiens, UniProt P41595); test: 5HT2B competitive radioligand binding; conditions: ratio of Ki values
T1 construct: host or cells: receptor-expressing membranes
Description: Human serotonin 5HT2B receptor membrane preparations were divided into aliquots. On the day of the assay, membranes were diluted at 1:200 in incubation buffer. […] To each well was added 150 μL membrane preparation, 50 μL test compound, non-specific compound, or buffer alone, as well as 50 μL radioligand. The plate was incubated at 35° C. for 90 minutes with gentle agitation. […] For each concentration of drug, non-specific binding was subtracted from total binding to give specific binding. […] Ki was subsequently calculated using the ChengPrusoff equation.

experienced drug users = conditions: cited from earlier work
[4] = tested on: serotonergic terminals in the cortex and hippocampus; conditions: (±)-MBDB.HCl 25 mg/kg IP every 12 hours for 4 days, 2 weeks post-treatment; cited from earlier work
C57BL/6J mice = test: Fear extinction paradigm (PTSD mouse model); type: in vivo; conditions: MBDB 5 mg/kg IP, day 2
Description: Effective PTSD treatments facilitate the disassociation between a traumatic memory and the patient's fear response, making cues for the traumatic memory evoke less of a fear response. This is modeled in the mouse fear extinction paradigm (see FIG. 9A) which takes place over 3 days. On day 1 (fear conditioning), mice are trained to acquire a “traumatic memory,” namely associating the conditioned stimulus (CS, tone) to the unconditioned stimulus (US, foot shock). On day 2 (extinction training), they are trained to forget the traumatic memory association by presenting the CS 6 times (with no US) in a novel environment. On day 3 (extinction recall), the mice are “asked” if that tone (CS) still elicits a fearful response, as measured by the time spent freezing when the tone is presented. Less time freezing means better extinction recall. Drugs that improve extinction recall reduce freezing time on day 3, and, therefore, show potential as a PTSD treatment.
Methods: Cued fear conditioning was performed in C57BL/6J mice. On day 1, animals were placed in the chambers and presented with a training session (CS-US pairing). The training consisted of a 2-minute habituation followed by a 30-second, 80 dB tone; during the last 2 seconds of the tone animals received a 1 mA foot shock. This US-CS procedure occurred once for a total of one paired presentation of tone and shock. Freezing behavior (immobility) was recorded in 5-10-see intervals during the session. Percent baseline freezing behavior was determined in the 2-minute habituation period. On day 3, animals were placed in context B, in which tactile and odor cues differed from context A. Following a 2 minute acclimation period animals received 4×30 sec presentations of the CS (tone) in the absence of the US (footshock), with a 45 sec interval between presentations. Freezing was recorded in 5-10-see intervals to measure baseline freezing response to the altered context, and freezing response to each tone cue presentation. […] On day 4 (Post-Extinction Testing in Drug-Free State), animals were placed in Context B. Following a 2 min acclimation period, animals received 4×30 sec extinction tone duration presentations of the CS (tone) in the absence of the US (footshock), with a 45 sec interval between presentations. Freezing was recorded in 5-10-see intervals to measure baseline freezing response to the altered context, and freezing response to each tone cue presentation.

C57Bl/6 mice = test: Cisplatin CIPN model, von Frey test; type: in vivo, mouse
Description: Cisplatin, a platinum-based chemotherapy agent has been used to reduce pain thresholds in a model of CIPN. Effects of acute (single higher dose) or sub-chronic (7 days repeated lower dose) 2C-B on pain thresholds were investigated in cisplatin-treated animals compared with vehicle or cisplatin-treated controls.
Methods: Male C57Bl/6 mice aged 12-16 weeks were used. Cisplatin (2.5 mg/kg) or vehicle was administered on days 1-5 and 11-15.
Vehicle, sub-chronic 2C-B (5 mg/kg once daily days 17-23) or acute 2C-B (20 mg/kg once on day 17) was then administered IP (N=16-18/group). VonFrey testing took place on day 17 (30 min post-dose) and days 21 and 24 (pre-dose) to monitor the effects of 2C-B in cisplatin treated animals, compared with animals receiving cisplatin+vehicle or vehicle+vehicle.
For von Frey measurements, animals were placed into wire bottom cubicles with opaque Plexiglas walls, allowing access to the underside of their paws. Animals were habituated to this environment for at least 30 minutes before the start of the von Frey filament application. Static allodynia was measured using Semmes-Weinstein von Frey filaments (Stoelting, Wood Dale, IL). Mechanical allodynia was tested by touching the plantar surface of the animals' right and left hind paws with von Frey filaments which deliver a calibrated amount of force (0.07, 0.16, 0.4, 0.6. 1.0, 2.0, 4.0, 6.0 g). […]

T1 sequence (P41595 whole entry): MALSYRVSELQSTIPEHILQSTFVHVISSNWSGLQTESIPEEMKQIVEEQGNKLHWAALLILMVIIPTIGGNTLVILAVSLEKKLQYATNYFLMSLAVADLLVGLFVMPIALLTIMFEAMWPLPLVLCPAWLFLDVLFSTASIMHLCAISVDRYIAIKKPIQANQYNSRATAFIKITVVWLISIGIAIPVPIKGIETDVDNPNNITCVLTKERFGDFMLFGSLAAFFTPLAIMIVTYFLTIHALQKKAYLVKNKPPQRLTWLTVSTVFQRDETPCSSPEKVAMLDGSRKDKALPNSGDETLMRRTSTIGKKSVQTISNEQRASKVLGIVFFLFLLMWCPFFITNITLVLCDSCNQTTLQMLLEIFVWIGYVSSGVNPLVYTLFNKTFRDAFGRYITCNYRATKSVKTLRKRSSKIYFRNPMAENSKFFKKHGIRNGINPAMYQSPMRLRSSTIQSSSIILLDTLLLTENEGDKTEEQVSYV

## CCN(CC)C(=O)[C@@H]1C=C2c3cccc4[nH]cc(c34)C[C@H]2N(C)C1 [LSD, lysergic acid-N,N-diethylamide]
Sprague Dawley rats [1]
  reduction in immobility: 38%

## CNCCC(Oc1ccc(C(F)(F)F)cc1)c1ccccc1 (centres unmarked) [fluoxetine, reference compound]
Sprague Dawley rats [2]; Example 8, fluoxetine 10 mg/kg IP x3
  swimming behavior: significantly increased swimming behavior

## CC(N)Cc1ccc2c(c1)OCO2 (centres unmarked) [MDA]
[3]
  times greater affinity for the 5HT2B receptor compared with methylone: 37 times

## CN(C)CCc1c[nH]c2cccc(OP(=O)(O)O)c12 [psilocybin]
Sprague Dawley rats [1]
  reduction in immobility: 67%

## CCC(Cc1ccc2c(c1)OCO2)NC (centres unmarked) [MBDB, N-methyl-1-(1,3-benzodioxol-5-yl)-2-aminobutane]
Sprague Dawley rats [2]; MBDB 5-30 mg/kg IP, 30 min before test
  immobility: significantly reduced immobility
Experienced drug users; self-administered MBDB, 100 to 300 mg
  adverse effects: no serious adverse effects
[4]
  serotonergic terminals destroyed in the cortex and hippocampus: 55-60%
C57BL/6J mice
  extinction acquisition, first trial of extinction training: improved extinction acquisition
  locomotor activity: small, but significant increase in locomotor activity

## COc1cc(CCN)c(OC)cc1Br [2C-B, 4-Bromo-2,5-dimethoxyphenethylamine]
Sprague Dawley rats [2]; 2C-B high-dose group (20 mg/kg IP)
  climbing: significantly decreased
Sprague Dawley rats [2]; 2C-B single dose IP 30 min before test
  swimming: significant increase in swimming
C57Bl/6 mice; 5 mg/kg 2C-B once daily days 17-23
  effect of repeated doses: sustained beneficial effect
C57Bl/6 mice; single dose 5 or 20 mg/kg IP, within 30 min, day 17
  pain thresholds in cisplatin-treated animals: significantly increased
Experienced drug users; self-administered 2C-B, 10 to 20 mg
  adverse effects: no serious adverse effects
